Data reported in publication PMC1090567, “S-Nitrosothiols modulate G protein-coupled receptor signaling in a reversible and highly receptor-specific manner” (BMC Cell Biology, 2005).

Target: T1, Adenosine A1 (Rattus norvegicus, UniProt P25099)
T1 construct: gene Adora1; native receptor in rat forebrain P2 membranes
T1 sequence (P25099 1-326): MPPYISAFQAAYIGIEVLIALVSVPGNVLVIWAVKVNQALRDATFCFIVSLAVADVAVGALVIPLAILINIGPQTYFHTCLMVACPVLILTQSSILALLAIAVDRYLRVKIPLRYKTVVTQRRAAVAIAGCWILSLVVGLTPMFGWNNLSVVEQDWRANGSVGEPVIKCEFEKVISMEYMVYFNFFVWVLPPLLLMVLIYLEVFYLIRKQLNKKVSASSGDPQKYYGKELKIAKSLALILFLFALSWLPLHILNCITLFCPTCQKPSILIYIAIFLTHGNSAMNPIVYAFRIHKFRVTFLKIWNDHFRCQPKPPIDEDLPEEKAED
Experiment: […]GTPγS binding, rat forebrain membranes
Type: biochemical
Conditions: agonist; control without GSNO; 10 μM GDP, pH 7.4, 25 °C

Nc1nc(Cl)nc2c1ncn2[C@@H]1O[C@H](CO)[C@@H](O)[C@H]1O [2-chloroadenosine]
Control / log(EC50): -6.90 ± 0.04
